Reference: publication PMC10687582, “Herpetrione, a New Type of PPARα Ligand as a Therapeutic Strategy Against Nonalcoholic Steatohepatitis” (Research, 2023)

Target: T1, PPARα (Homo sapiens, UniProt Q07869)
T1 construct: gene PPARA
T1 sequence (Q07869 200-468 limits assumed): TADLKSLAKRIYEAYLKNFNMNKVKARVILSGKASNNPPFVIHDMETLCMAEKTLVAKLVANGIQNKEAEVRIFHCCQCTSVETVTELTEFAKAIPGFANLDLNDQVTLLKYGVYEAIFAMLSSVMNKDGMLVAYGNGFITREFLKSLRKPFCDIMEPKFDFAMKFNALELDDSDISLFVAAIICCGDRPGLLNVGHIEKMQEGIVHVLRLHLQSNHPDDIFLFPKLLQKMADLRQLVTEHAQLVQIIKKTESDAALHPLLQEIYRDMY
Assay: ITC (KD […]; WT in the mutant comparison […]); SPR KD […]; CETSA and DARTS in HepG2 lysates
Type: binding

Kd: 3.27 µM
Compound: COc1cc(C(=O)C(CO)c2cc(C3OCC4C(c5ccc(O)c(OC)c5)OCC34)cc(OC)c2O)ccc1O (stereo not shown) [herpetrione]
